Test [1] deals with T1, androgen receptor (AR-LBD) (Rattus norvegicus, UniProt P15207).
T1 construct: 5 μL of 2×AR-LBD/Fluoromone AL Red Complex contained in the kit; purchased Invitrogen
T1 sequence (P15207 651-882 limits assumed): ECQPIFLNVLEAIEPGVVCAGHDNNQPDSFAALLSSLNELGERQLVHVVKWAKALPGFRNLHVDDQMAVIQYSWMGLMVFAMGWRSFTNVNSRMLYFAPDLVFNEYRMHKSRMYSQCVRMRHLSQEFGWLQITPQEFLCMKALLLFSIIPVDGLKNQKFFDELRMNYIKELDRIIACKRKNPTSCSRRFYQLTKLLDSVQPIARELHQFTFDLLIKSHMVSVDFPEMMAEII
Nature of the test: Evaluation of androgen receptor affinity (PolarScreen Androgen Receptor Competitor Assay Kit, Red; fluorescence polarization). The following applies: 22° C. for 5 hours, relative to binding rate of 1 μM DHT, read-out: AR affinity (pEC50) (converted). Put shortly:
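Fluorescence polarization read-out after 5 h at 22° C of compound with a red-fluorophore-labelled AR-LBD complex. Displacement is scaled against 1 μM DHT, and the log reciprocal of the concentration reaching half that effect gives pEC50 via four-parameter curve fitting.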
On the technique in general: Fluorescence polarisation rises when a labelled molecule tumbles more slowly, as on binding a larger partner.

Another test concerns the target T2, human androgen receptor (Homo sapiens, UniProt P10275).
T2 construct: expressed in transfected cells; host or cells: HEK293
T2 sequence (P10275 1-920): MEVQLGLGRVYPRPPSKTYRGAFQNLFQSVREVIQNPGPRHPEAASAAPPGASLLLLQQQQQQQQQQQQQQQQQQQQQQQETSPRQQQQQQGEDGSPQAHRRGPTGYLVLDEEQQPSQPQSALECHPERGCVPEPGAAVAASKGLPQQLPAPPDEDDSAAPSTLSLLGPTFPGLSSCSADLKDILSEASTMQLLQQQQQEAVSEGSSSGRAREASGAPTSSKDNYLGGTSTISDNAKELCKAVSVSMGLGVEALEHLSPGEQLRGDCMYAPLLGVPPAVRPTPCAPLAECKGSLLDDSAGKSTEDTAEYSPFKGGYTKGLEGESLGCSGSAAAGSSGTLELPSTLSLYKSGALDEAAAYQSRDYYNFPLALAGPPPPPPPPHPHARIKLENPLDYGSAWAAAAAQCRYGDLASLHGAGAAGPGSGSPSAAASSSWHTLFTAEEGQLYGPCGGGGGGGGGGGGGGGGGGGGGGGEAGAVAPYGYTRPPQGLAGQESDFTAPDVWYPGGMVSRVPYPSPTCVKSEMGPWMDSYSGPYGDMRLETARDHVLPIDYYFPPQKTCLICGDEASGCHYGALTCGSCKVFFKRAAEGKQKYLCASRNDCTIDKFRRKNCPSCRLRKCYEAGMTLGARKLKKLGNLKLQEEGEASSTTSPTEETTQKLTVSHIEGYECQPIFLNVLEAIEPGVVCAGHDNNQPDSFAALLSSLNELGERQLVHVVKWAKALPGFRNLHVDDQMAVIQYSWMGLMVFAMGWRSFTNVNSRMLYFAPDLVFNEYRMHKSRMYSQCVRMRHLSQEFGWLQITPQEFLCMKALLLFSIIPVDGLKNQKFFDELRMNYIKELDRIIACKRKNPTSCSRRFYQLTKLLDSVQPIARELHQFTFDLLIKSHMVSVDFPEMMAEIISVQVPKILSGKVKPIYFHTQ
Nature of the test: Reporter assay of an androgen receptor responsive sequence (luciferase, transiently transfected HEK293 cells). The class given is cell-based. The following applies: 24 hours incubation, relative to activity of 100 nM DHT, read-out: AR transcriptive activity (pEC50) (converted). Put shortly: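 HEK293 cells transiently transfected for 3 h with ARE-firefly luciferase, full-length human AR and TK-Renilla plasmids, then exposed to compound for 24 h at 37 °C in 5% charcoal-treated FBS/DMEM. Dual-Glo luminescence read; pEC50 from 4-parameter fit relative to 100 nM DHT.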

Where only a bound is given, the exact number is not on record here.

Turning to `Cc1nc(CN(CCc2ccc(Cl)cc2)c2nc(C(=O)NS(C)(=O)=O)c(C)s2)cs1` [Compound 504, 2-[2-(4-chlorophenyl)ethyl-[(2-methylthiazol-4-yl)methyl]amino]-5-methyl-N-methylsulfonyl-thiazole-4-carboxamide], the EC50 in test [1] is 63.1 nM; at human androgen receptor, 631 nM.

On to `COc1cccc(CN(CCc2ccc(OC(F)(F)F)cc2)c2nc(C(=O)NS(C)(=O)=O)c(C)s2)n1` [Compound 505, 2-[(6-methoxy-2-pyridyl)methyl-[2-[4-(trifluoromethoxy)phenyl]ethyl]amino]-5-methyl-N-methylsulfonyl-thiazole-4-carboxamide], for which the EC50 in test [1] is 39.8 nM; at human androgen receptor, 2000 nM.

In the case of `Cc1sc(N(CCc2ccc(OC(F)(F)F)cc2)Cc2ccc(C#N)cc2)nc1C(=O)NS(C)(=O)=O` [Compound 506, 2-[(4-cyanophenyl)methyl-[2-[4-(trifluoromethoxy)phenyl]ethyl]amino]-5-methyl-N-methylsulfonyl-thiazole-4-carboxamide], the EC50 in test [1] is 25.1 nM; on human androgen receptor, over 10000 nM.

For `Cc1nc(CN(CCc2ccc(OC(F)(F)F)cc2)c2nc(C(=O)NS(C)(=O)=O)c(C)s2)cs1` [Compound 507, 5-methyl-N-methylsulfonyl-2-[(2-methylthiazol-4-yl)methyl-[2-[4-(trifluoromethoxy)phenyl]ethyl]amino]thiazole-4-carboxamide], the figures for the EC50 (in test [1]; on human androgen receptor) were 39.8 nM and 501 nM, respectively.

As for `Cc1cc(CN(CCc2ccc(Cl)cc2)c2nc(C(=O)NS(C)(=O)=O)c(C)s2)no1` [Compound 508, 2-[2-(4-chlorophenyl)ethyl-[(5-methylisoxazol-3-yl)methyl]amino]-5-methyl-N-methylsulfonyl-thiazole-4-carboxamide], the EC50 in test [1] was 316 nM; at human androgen receptor, 5010 nM.

Consider `Cc1cc(CN(CCc2ccc(OC(F)(F)F)cc2)c2nc(C(=O)NS(C)(=O)=O)c(C)s2)no1` [Compound 509, 5-methyl-2-[(5-methylisoxazol-3-yl)methyl-[2-[4-(trifluoromethoxy)phenyl]ethyl]amino]-N-methylsulfonyl-thiazole-4-carboxamide], for which the results for the EC50 (in test [1]; on human androgen receptor) were 200 nM and over 10000 nM, respectively.

In the case of `Cc1sc(N(CC2COc3ccccc3C2)c2ccc(C#N)cc2)nc1C(=O)NS(C)(=O)=O` (stereo not shown) [Compound 510, 2-[N-(chroman-3-ylmethyl)-4-cyano-anilino]-5-methyl-N-methylsulfonyl-thiazole-4-carboxamide], the EC50 in test [1] was 126 nM; on human androgen receptor, 1260 nM.

Turning to `Cc1sc(N(Cc2ccc(OC(F)F)cn2)c2ccc(C#N)cc2)nc1C(=O)NS(C)(=O)=O` [Compound 511, 2-[4-cyano-N-[[5-(difluoromethoxy)-2-pyridyl]methyl]anilino]-5-methyl-N-methylsulfonyl-thiazole-4-carboxamide], the figures for the EC50 (in test [1]; on human androgen receptor) were 158 nM and 316 nM, respectively.

In the case of `Cc1sc(N(CCc2ccc(OC(F)(F)F)cc2)Cc2ccc(Cl)cn2)nc1C(=O)NS(C)(=O)=O` [Compound 512, 2-[(5-chloro-2-pyridyl)methyl-[2-[4-(trifluoromethoxy)phenyl]ethyl]amino]-5-methyl-N-methylsulfonyl-thiazole-4-carboxamide], the EC50 is 100 nM in test [1] and 1260 nM on human androgen receptor.

On to `Cc1nc(CN(CCc2ccc(OC(F)F)cc2)c2nc(C(=O)NS(C)(=O)=O)c(C)s2)cs1` [Compound 513, 2-[2-[4-(difluoromethoxy)phenyl]ethyl-[(2-methylthiazol-4-yl)methyl]amino]-5-methyl-N-methylsulfonyl-thiazole-4-carboxamide], for which the EC50 in test [1] was 200 nM; on human androgen receptor, 1580 nM.

Regarding `Cc1sc(N(Cc2ccc(C(F)(F)F)cn2)c2ccc(C#N)cc2)nc1C(=O)NS(C)(=O)=O` [Compound 514, 2-[4-cyano-N-[[5-(trifluoromethyl)-2-pyridyl]methyl]anilino]-5-methyl-N-methylsulfonyl-thiazole-4-carboxamide], the EC50 in test [1] was 126 nM; on human androgen receptor, 158 nM.

For the compound `COc1ccc(CN(c2ccc(C#N)cc2)c2nc(C(=O)NS(C)(=O)=O)c(C)s2)nc1` [Compound 515, 2-[4-cyano-N-[(5-methoxy-2-pyridyl)methyl]anilino]-5-methyl-N-methylsulfonyl-thiazole-4-carboxamide], the EC50 is 794 nM in test [1] and 501 nM on human androgen receptor.

As for `COc1ccc(CN(c2ccc(C#N)cc2)c2nc(C(=O)NS(C)(=O)=O)c(C)s2)nn1` [Compound 516, 2-[4-cyano-N-[(6-methoxypyridazin-3-yl)methyl]anilino]-5-methyl-N-methylsulfonyl-thiazole-4-carboxamide], the EC50 is over 2000 nM in test [1] and 6310 nM at human androgen receptor.

For the compound `Cc1sc(N(Cc2ccc(F)cn2)c2ccc(C#N)cc2)nc1C(=O)NS(C)(=O)=O` [Compound 517, 2-[4-cyano-N-[(5-fluoro-2-pyridyl)methyl]anilino]-5-methyl-N-methylsulfonyl-thiazole-4-carboxamide], the EC50 in test [1] is 316 nM; on human androgen receptor it was 631 nM.

For the compound `Cc1sc(N(Cc2cc(F)cc(OC(F)F)c2)c2ccc(C#N)cc2)nc1C(=O)NS(C)(=O)=O` [Compound 518, 2-[4-cyano-N-[[3-(difluoromethoxy)-5-fluoro-phenyl]methyl]anilino]-5-methyl-N-methylsulfonyl-thiazole-4-carboxamide], the values for the EC50 (in test [1]; on human androgen receptor) were 25.1 nM and 39.8 nM, respectively.

In the case of `COCCCS(=O)(=O)NC(=O)c1nc(N(Cc2cc(F)cc(OC(F)F)c2)c2ccc(C#N)cc2)sc1C` [Compound 519, 2-[4-cyano-N-[[3-(difluoromethoxy)-5-fluoro-phenyl]methyl]anilino]-N-(3-methoxypropylsulfonyl)-5-methyl-thiazole-4-carboxamide], the EC50 in test [1] was 25.1 nM; at human androgen receptor, 158 nM.

As for `Cc1sc(N(Cc2cc(OC(F)F)ccc2F)c2ccc(C#N)cc2)nc1C(=O)NS(C)(=O)=O` [Compound 520, 2-[4-cyano-N-[[5-(difluoromethoxy)-2-fluoro-phenyl]methyl]anilino]-5-methyl-N-methylsulfonyl-thiazole-4-carboxamide], the EC50 in test [1] is 25.1 nM; at human androgen receptor, 316 nM.

Consider `COCCCS(=O)(=O)NC(=O)c1nc(N(Cc2cc(OC(F)F)ccc2F)c2ccc(C#N)cc2)sc1C` [Compound 521, 2-[4-cyano-N-[[5-(difluoromethoxy)-2-fluoro-phenyl]methyl]anilino]-N-(3-methoxypropylsulfonyl)-5-methyl-thiazole-4-carboxamide], for which the EC50 in test [1] was 31.6 nM; on human androgen receptor it was 1260 nM.

Regarding `Cc1sc(N(Cc2ccc(OC(F)F)cc2F)c2ccc(C#N)cc2)nc1C(=O)NS(C)(=O)=O` [Compound 522, 2-[4-cyano-N-[[4-(difluoromethoxy)-2-fluoro-phenyl]methyl]anilino]-5-methyl-N-methylsulfonyl-thiazole-4-carboxamide], the EC50 in test [1] is 25.1 nM; on human androgen receptor it was 251 nM.

For `COCCCS(=O)(=O)NC(=O)c1nc(N(Cc2ccc(OC(F)F)cc2F)c2ccc(C#N)cc2)sc1C` [Compound 523, 2-[4-cyano-N-[[4-(difluoromethoxy)-2-fluoro-phenyl]methyl]anilino]-N-(3-methoxypropylsulfonyl)-5-methyl-thiazole-4-carboxamide], the figures for the EC50 (in test [1]; at human androgen receptor) were 31.6 nM and 398 nM, respectively.

For the origin of these results see patent US10689354B2, “Aminoazole derivative” (Teijin Pharma Limited, priority 2015, dated 2020).
